In PubChem BioAssay AID1845219 (Molecular Pharmacology Branch, DTP, NCI, 2023):
Calls of active or inactive are those of the source. Rule for the calls: active = viability on the fitted dose curve at most 10% of control; inactive = the rest.

Test system: SYO-1 tumor spheroids, viability % test/control
Test: Anticancer human tumor SYO-1 cell line growth inhibition;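 note: spheroids exposed to agents for 7 days before viability read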;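 for viability, T/C: 100% = DMSO vehicle control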
Details: spheroids with HUVEC and MSC; for IC50: curve of first compound; for viability, T/C: stronger effect = lower value
How it was run: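 Complex spheroids of malignant cells with endothelial cells and mesenchymal stem cells; agents alone or combined, from near clinical Cmax (or 10 microM if unknown) down in half-log steps, 0.25% DMSO final.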

[1] = second compound 30 pM, first compound 0.00949 µM
[2] = second compound 30 pM, first compound 0.03 µM
[3] = second compound 30 pM, first compound 0.0949 µM
[4] = second compound 30 pM, first compound 0.3 µM
[5] = second compound 30 pM, first compound 0.949 µM
[6] = second compound 30 pM, first compound 3 µM
[7] = second compound 94.9 pM, first compound 0.00949 µM
[8] = second compound 94.9 pM, first compound 0.03 µM
[9] = second compound 94.9 pM, first compound 0.0949 µM
[10] = second compound 94.9 pM, first compound 0.3 µM
[11] = second compound 94.9 pM, first compound 0.949 µM
[12] = second compound 94.9 pM, first compound 3 µM
[13] = second compound 0.0003 µM, first compound 0.00949 µM
[14] = second compound 0.0003 µM, first compound 0.03 µM
[15] = second compound 0.0003 µM, first compound 0.0949 µM
[16] = second compound 0.0003 µM, first compound 0.3 µM
[17] = second compound 0.0003 µM, first compound 0.949 µM
[18] = second compound 0.0003 µM, first compound 3 µM
[19] = second compound 0.000949 µM, first compound 0.00949 µM
[20] = second compound 0.000949 µM, first compound 0.03 µM
[21] = second compound 0.000949 µM, first compound 0.0949 µM
[22] = second compound 0.000949 µM, first compound 0.3 µM
[23] = second compound 0.000949 µM, first compound 0.949 µM
[24] = second compound 0.000949 µM, first compound 3 µM
[25] = second compound 0.003 µM, first compound 0.00949 µM
[26] = second compound 0.003 µM, first compound 0.03 µM
[27] = second compound 0.003 µM, first compound 0.0949 µM
[28] = second compound 0.003 µM, first compound 0.3 µM
[29] = second compound 0.003 µM, first compound 0.949 µM
[30] = second compound 0.003 µM, first compound 3 µM

Structure (SMILES) | IC50 (second compound 30 pM) [nM] | IC50 (second compound 94.9 pM) [nM] | IC50 (second compound 0.0003 µM) [nM] | IC50 (second compound 0.000949 µM) [nM] | IC50 (second compound 0.003 µM) [nM] | viability, T/C [3] [%] | viability, T/C [4] [%] | viability, T/C [5] [%] | viability, T/C [6] [%] | viability, T/C [9] [%] | viability, T/C [10] [%] | viability, T/C [11] [%] | viability, T/C [12] [%] | viability, T/C [15] [%] | viability, T/C [16] [%] | viability, T/C [17] [%] | viability, T/C [18] [%] | viability, T/C [21] [%] | viability, T/C [22] [%] | viability, T/C [23] [%] | also measured
CNCc1ccc(-c2cc(-c3nc(-c4ccc(S(=O)(=O)C(C)C)cc4)cnc3N)on2)cc1 + COc1cc2c(cc1O)CCNC21CSC2c3c(OC(C)=O)c(C)c4c(c3C(COC1=O)N1C(O)C3Cc5cc(C)c(OC)c(O)c5C(C21)N3C)OCO4 | 134 | 49.1 | < 9.49 | < 9.49 | < 9.49 | 70.5 | 2.18 | 0.23 | 0.08 | 4.65 | 1.24 | 0.12 | 0.07 | 2.02 | 0.82 | 0.12 | 0.09 | 1.43 | 0.42 | 0.09 | viability, T/C [1]: 100%; viability, T/C [2]: 94.2%; viability, T/C [7]: 98.6%; viability, T/C [8]: 84%; viability, T/C [13]: 11.1%; viability, T/C [14]: 3.94%; viability, T/C [19]: 1.37%; viability, T/C [20]: 1.54%; viability, T/C [24]: 0.1%; viability, T/C [25]: 0.12%; viability, T/C [26]: 0.12%; viability, T/C [27]: 0.1%; viability, T/C [28]: 0.11%; viability, T/C [29]: 0.19%; viability, T/C [30]: 0.18%
Cc1sc2c(c1C)C(c1ccc(Cl)cc1)=NC(CC(=O)Nc1ccc(O)cc1)c1nnc(C)n1-2 (stereo not given) + COc1cc2c(cc1O)CCNC21CSC2c3c(OC(C)=O)c(C)c4c(c3C(COC1=O)N1C(O)C3Cc5cc(C)c(OC)c(O)c5C(C21)N3C)OCO4 | 52.9 | 43.2 | < 9.49 | < 9.49 | < 9.49 | 12.1 | 0.72 | 0.4 | 0.28 | 8.96 | 0.68 | 0.34 | 0.28 | 0.68 | 0.58 | 0.32 | 6.38 | 0.51 | 0.24 | 0.06 | viability, T/C [1]: 89%; viability, T/C [2]: 86.8%; viability, T/C [7]: 86.1%; viability, T/C [8]: 69%; viability, T/C [13]: 6.25%; viability, T/C [14]: 2.72%; outcome [19]: active; viability, T/C [20]: 0.65%; viability, T/C [24]: 0.12%; viability, T/C [25]: 0.08%; viability, T/C [26]: 0.1%; viability, T/C [27]: 0.09%; viability, T/C [28]: 0.1%; viability, T/C [29]: 0.09%; viability, T/C [30]: 0.21%
Cn1ncnc1[C@H]1c2n[nH]c(=O)c3cc(F)cc(c23)N[C@@H]1c1ccc(F)cc1 + COc1cc2c(cc1O)CCNC21CSC2c3c(OC(C)=O)c(C)c4c(c3C(COC1=O)N1C(O)C3Cc5cc(C)c(OC)c(O)c5C(C21)N3C)OCO4 | < 9.49 | < 9.49 | < 9.49 | < 9.49 | < 9.49 | 3.42 | 2.17 | 1.14 | 1.2 | 2.32 | 1.61 | 1.11 | 1.06 | 1.38 | 1.22 | 1.37 | 0.93 | 0.78 | 0.83 | 0.68 | viability, T/C [1]: 40.6%; viability, T/C [2]: 8.47%; viability, T/C [7]: 9.24%; viability, T/C [8]: 3.72%; viability, T/C [13]: 1.89%; viability, T/C [14]: 1.72%; viability, T/C [19]: 0.99%; viability, T/C [20]: 0.87%; viability, T/C [24]: 0.57%; viability, T/C [25]: 0.13%; viability, T/C [26]: 0.14%; viability, T/C [27]: 0.13%; viability, T/C [28]: 0.14%; viability, T/C [29]: 0.52%; viability, T/C [30]: 0.24%
O=C(c1cc(Cc2n[nH]c(=O)c3ccccc23)ccc1F)N1CCN(C(=O)C2CC2)CC1 + COc1cc2c(cc1O)CCNC21CSC2c3c(OC(C)=O)c(C)c4c(c3C(COC1=O)N1C(O)C3Cc5cc(C)c(OC)c(O)c5C(C21)N3C)OCO4 | 1590 | 575 | < 94.9 | < 94.9 | < 94.9 | 101 | 92.3 | 84.7 | 7.77 | 85.9 | 79.7 | 27.2 | 4.14 | 6.93 | 3.52 | 2.62 | 1.83 | 0.91 | 0.86 | 0.95 | viability, T/C (second compound 30 pM, first compound 9.49 µM): 2.16%; viability, T/C (second compound 30 pM, first compound 30 µM): 1.89%; viability, T/C (second compound 94.9 pM, first compound 9.49 µM): 1.87%; viability, T/C (second compound 94.9 pM, first compound 30 µM): 1.22%; viability, T/C (second compound 0.0003 µM, first compound 9.49 µM): 1.18%; viability, T/C (second compound 0.0003 µM, first compound 30 µM): 1.45%; viability, T/C [24]: 0.68%; viability, T/C (second compound 0.000949 µM, first compound 9.49 µM): 0.61%; viability, T/C (second compound 0.000949 µM, first compound 30 µM): 0.39%; viability, T/C [27]: 3.53%; viability, T/C [28]: 0.25%; viability, T/C [29]: 0.21%; viability, T/C [30]: 0.22%; viability, T/C (second compound 0.003 µM, first compound 9.49 µM): 0.24%; viability, T/C (second compound 0.003 µM, first compound 30 µM): 0.31%
